What was measured:
Assay in all cases: Kinase profiling in a biochemical assay panel (mobility shift assays and ELISA), %-inhibition at 1 μM; selectivity entropy
[1] = molecular target: panel of more than 300 wild-type and mutant kinases (313 kinase panel) (Homo sapiens, UniProt Q9Y3S1); conditions: kinase WNK2; compound at 1 μM
[2] = molecular target: T1, panel of more than 300 wild-type and mutant kinases (313 kinase panel) (Homo sapiens, UniProt P15735); conditions: kinase PHKG2; 1 μM
T1 sequence (P15735 1-406): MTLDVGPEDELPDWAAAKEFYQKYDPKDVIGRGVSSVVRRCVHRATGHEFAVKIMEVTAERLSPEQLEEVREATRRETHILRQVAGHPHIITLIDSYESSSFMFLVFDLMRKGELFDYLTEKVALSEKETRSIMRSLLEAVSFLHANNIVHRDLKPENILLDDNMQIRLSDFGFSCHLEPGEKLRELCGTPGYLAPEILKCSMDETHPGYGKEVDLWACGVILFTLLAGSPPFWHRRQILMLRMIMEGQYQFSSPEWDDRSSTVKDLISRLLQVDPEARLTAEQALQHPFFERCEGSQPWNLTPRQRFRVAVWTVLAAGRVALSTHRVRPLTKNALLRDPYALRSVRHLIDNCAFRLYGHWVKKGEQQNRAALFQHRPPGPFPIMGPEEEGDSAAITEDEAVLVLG

[3] = molecular target: T2, panel of more than 300 wild-type and mutant kinases (313 kinase panel) (Homo sapiens, UniProt Q96KB5); conditions: kinase PBK; 1 μM
T2 sequence (Q96KB5 1-322): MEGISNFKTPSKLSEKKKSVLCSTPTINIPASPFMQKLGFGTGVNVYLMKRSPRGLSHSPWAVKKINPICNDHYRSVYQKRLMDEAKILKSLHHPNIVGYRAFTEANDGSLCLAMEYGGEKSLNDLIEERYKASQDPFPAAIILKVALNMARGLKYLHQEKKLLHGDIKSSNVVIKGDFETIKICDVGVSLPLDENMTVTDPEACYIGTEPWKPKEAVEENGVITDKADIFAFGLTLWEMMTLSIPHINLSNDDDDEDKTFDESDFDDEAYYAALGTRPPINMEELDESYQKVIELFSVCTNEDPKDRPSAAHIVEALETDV

[4] = molecular target: panel of more than 300 wild-type and mutant kinases (313 kinase panel) (Homo sapiens, UniProt Q04759); conditions: kinase PKCθ; 1 μM
[5] = molecular target: panel of more than 300 wild-type and mutant kinases (313 kinase panel) (Homo sapiens, UniProt P31749)
[6] = molecular target: T3, panel of more than 300 wild-type and mutant kinases (313 kinase panel) (Homo sapiens, UniProt Q12866); conditions: kinase MER; compound at 1 μM
T3 sequence (Q12866 21-999): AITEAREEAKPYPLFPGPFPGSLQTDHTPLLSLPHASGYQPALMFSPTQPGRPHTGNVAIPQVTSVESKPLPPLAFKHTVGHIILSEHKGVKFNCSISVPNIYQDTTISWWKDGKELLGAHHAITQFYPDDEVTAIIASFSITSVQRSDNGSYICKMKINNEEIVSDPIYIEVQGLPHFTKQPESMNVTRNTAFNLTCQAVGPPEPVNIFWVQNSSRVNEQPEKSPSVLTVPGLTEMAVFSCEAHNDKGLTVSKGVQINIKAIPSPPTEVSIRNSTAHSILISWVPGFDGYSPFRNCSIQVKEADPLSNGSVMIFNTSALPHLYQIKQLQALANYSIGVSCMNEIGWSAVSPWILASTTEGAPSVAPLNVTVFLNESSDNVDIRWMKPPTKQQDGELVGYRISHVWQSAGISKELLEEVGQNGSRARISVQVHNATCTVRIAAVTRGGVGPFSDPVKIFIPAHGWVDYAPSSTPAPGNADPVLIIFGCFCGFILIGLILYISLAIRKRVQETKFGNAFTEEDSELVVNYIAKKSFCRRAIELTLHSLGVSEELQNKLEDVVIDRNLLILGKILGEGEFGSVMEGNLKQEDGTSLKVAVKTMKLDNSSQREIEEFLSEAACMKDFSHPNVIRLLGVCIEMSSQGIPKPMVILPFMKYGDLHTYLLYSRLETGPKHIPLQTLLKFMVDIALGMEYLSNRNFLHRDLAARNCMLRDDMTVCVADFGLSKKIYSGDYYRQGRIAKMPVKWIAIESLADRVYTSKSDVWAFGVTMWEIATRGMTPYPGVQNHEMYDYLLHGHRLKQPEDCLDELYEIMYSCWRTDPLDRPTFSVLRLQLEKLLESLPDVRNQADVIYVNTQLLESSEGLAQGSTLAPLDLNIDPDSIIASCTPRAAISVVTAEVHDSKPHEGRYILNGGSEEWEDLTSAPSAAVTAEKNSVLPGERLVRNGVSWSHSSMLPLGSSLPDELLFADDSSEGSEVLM

[7] = molecular target: panel of more than 300 wild-type and mutant kinases (313 kinase panel) (Homo sapiens, UniProt Q13233); conditions: kinase MAP3K1; compound at 1 μM
[8] = molecular target: panel of more than 300 wild-type and mutant kinases (313 kinase panel) (Homo sapiens, UniProt Q16654); conditions: kinase PDHK4; 1 μM
[9] = molecular target: panel of more than 300 wild-type and mutant kinases (313 kinase panel) (Homo sapiens, UniProt Q8IU85); conditions: kinase CaMK1δ; 1 μM compound

Sequence of panel of more than 300 wild-type and mutant kinases (313 kinase panel) (Homo sapiens, UniProt Q04759) (Q04759 whole entry, change not shown): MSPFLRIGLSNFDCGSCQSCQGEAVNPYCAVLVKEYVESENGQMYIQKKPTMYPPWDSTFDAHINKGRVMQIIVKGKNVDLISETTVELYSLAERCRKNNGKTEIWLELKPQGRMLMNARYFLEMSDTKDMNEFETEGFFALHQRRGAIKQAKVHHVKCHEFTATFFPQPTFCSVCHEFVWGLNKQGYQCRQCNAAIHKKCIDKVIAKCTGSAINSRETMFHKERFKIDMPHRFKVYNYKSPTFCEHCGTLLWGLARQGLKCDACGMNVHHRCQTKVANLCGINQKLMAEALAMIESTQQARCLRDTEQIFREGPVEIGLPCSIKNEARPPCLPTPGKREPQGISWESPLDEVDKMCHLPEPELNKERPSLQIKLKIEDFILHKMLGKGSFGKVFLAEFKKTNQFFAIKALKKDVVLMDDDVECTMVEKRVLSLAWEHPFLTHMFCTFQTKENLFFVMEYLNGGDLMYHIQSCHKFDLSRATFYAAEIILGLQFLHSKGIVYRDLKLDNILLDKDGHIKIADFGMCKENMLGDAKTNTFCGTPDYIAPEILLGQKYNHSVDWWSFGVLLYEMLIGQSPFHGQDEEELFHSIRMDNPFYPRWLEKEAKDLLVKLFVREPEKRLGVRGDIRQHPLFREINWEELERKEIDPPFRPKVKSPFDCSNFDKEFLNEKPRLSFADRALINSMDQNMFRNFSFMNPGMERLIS
Sequence of panel of more than 300 wild-type and mutant kinases (313 kinase panel) (Homo sapiens, UniProt Q13233) (Q13233 whole entry, change not shown): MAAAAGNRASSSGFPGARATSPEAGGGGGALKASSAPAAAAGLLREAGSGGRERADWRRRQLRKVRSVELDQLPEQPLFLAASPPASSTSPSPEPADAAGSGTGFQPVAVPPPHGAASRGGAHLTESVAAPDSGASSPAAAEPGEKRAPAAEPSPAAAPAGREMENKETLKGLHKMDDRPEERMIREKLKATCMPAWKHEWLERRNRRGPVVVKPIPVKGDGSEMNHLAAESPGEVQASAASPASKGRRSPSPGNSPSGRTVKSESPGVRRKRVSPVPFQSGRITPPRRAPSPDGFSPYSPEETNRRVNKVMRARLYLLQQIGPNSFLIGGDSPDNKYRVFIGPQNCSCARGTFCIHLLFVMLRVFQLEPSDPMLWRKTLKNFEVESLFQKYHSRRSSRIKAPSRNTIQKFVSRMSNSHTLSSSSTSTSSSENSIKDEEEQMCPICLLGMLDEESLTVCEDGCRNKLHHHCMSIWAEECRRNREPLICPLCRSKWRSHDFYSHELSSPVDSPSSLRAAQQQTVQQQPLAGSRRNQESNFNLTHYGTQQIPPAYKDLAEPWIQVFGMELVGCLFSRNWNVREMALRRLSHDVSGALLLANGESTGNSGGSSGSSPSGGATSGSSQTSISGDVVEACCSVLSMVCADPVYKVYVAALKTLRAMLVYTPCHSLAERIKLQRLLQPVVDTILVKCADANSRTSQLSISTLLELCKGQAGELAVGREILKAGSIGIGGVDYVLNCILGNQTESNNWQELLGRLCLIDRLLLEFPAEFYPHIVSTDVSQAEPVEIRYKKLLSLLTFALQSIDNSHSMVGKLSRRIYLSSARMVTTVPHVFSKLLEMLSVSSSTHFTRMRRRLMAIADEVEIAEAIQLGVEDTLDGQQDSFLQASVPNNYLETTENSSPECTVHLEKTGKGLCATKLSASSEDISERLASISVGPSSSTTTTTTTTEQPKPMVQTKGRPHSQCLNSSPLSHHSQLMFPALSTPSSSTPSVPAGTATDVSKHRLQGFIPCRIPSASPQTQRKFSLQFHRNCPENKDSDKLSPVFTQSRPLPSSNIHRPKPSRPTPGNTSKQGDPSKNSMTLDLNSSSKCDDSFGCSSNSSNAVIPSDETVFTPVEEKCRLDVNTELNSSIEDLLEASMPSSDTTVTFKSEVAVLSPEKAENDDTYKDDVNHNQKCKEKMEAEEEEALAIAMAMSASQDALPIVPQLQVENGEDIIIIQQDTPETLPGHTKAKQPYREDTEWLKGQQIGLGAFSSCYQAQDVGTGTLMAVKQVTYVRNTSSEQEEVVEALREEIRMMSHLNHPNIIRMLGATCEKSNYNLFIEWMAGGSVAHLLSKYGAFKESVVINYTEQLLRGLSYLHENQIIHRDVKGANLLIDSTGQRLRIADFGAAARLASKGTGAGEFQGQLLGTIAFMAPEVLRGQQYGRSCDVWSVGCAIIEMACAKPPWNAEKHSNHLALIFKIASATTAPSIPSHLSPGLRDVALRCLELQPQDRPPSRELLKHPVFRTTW
Sequence of panel of more than 300 wild-type and mutant kinases (313 kinase panel) (Homo sapiens, UniProt P31749) (P31749 whole entry, change not shown): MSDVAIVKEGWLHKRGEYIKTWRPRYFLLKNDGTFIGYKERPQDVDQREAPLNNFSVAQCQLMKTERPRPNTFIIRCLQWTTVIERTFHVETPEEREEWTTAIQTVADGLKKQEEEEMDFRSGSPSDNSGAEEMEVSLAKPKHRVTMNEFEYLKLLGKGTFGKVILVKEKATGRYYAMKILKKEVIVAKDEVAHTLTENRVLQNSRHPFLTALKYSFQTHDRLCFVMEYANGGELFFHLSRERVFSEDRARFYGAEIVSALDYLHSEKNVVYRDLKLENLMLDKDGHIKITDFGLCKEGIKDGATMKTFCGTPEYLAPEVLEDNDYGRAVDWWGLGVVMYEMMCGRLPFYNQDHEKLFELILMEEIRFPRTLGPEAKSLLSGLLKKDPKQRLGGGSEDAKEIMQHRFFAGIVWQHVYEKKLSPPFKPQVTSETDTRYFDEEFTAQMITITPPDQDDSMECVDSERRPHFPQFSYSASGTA

Row | SMILES | %-inhibition of WNK2 [1] | %-inhibition of PHKG2 [2] | %-inhibition of PBK [3] | %-inhibition of PKCθ [4] | %-inhibition, AKT1 ([5]; kinase AKT1, 1 μM compound) | %-inhibition of MER [6] | %-inhibition of MAP3K1 [7] | %-inhibition of PDHK4 [8] | %-inhibition, CaMK1δ [9] | %-inhibition, AKT1 ([5]; 1 µM)
1 | CO[C@H]1C[C@@H]2CC[C@@H](C)[C@@](O)(O2)C(=O)C(=O)N2CCCC[C@H]2C(=O)O[C@H]([C@H](C)C[C@@H]2CC[C@@H](OC(=O)C(C)(CO)CO)[C@H](OC)C2)CC(=O)[C@H](C)/C=C(\C)[C@@H](O)[C@@H](OC)C(=O)[C@H](C)C[C@H](C)/C=C/C=C/C=C/1C [temsirolimus] | -7% | -7% | -9% | -2.62% | -4% | -3.24% | 6% | -1.83% | -7% | –
2 | CC(=O)Nc1cccc(-n2c(=O)n(C3CC3)c(=O)c3c(Nc4ccc(I)cc4F)n(C)c(=O)c(C)c32)c1 [trametinib] | 1.45% | 2.81% | -3.79% | 0.388% | -3% | -6.62% | 99% | -1.65% | -3.3% | –
3 | COc1cc2c(Nc3ccc(Br)cc3F)ncnc2cc1OCC1CCN(C)CC1 [vandetanib] | -4.29% | 19% | -21% | -0.702% | – | 45% | -7.43% | -1.83% | -3% | -4.52%
4 | CCCS(=O)(=O)Nc1ccc(F)c(C(=O)c2c[nH]c3ncc(-c4ccc(Cl)cc4)cc23)c1F [vemurafenib] | 13% | -4.37% | -12% | -3% | -4.52% | 6% | 13% | -1.4% | -7% | –

Source: article PMC3961306, “Comparison of the Cancer Gene Targeting and Biochemical Selectivities of All Targeted Kinase Inhibitors Approved for Clinical Use” (PLoS ONE, 2014)
